“And” between values parts separate entries of the source, which are not always exact repeats. Identical values can stand only once.

Assay [1] deals with Ovalbumin-induced bronchoconstriction. Conditions: assay protocol reference data; cited from earlier work.
Assay [2] shares this test system. The assay is described as follows: Pulmonary, Antigen/Lipoxygenase Metabolites, in Guinea Pigs (intratracheal pressure). The format is in vivo, guinea pig. The procedure: Assays were performed at MDS Pharma in Taiwan and reference standards used as an integral part of each assay to ensure the validity of the results obtained. The biological assay employed was the Pulmonary, Antigen/Lipoxygenase Metabolites assay and the diethyl ether extract of Siphonochilus aethiopicus was evaluated for possible activity in this in vivo assay.
WG-I-101 was suspended in 0.5% CMC/0.1% Tween 80. The test substance at a dose of 500 mg/kg was given orally twice daily for 3 consecutive days and an additional final dose was added at one hour before challenge of Ovalbuminon testing day. Dosing volume of 10 ml/kg was used. The formulation is summarized as follows: […]
Groups of 5 Dunkin-Hartley derived male guinea pigs weighing 400±50 g (final day) were employed. The animals were anesthetized with pentobarbital sodium (50 mg/kg IP, with an additional 15 mg/kg IP if needed). An aluminum plate kept at 37° C. through water flow from a bath was placed beneath the test animals to maintain body temperature. The trachea was cannulated and a rodent ventilator (Harvard, USA) was used for artificial ventilation (10 ml/kg, 50 breaths/minute). Through a side-arm of the cannula, intratracheal pressure (ITP) was measured using a Pneumatic pulse transducer (Narco Biosystem, USA). A carotid artery was cannulated (PE50, Clay Adams, USA) for measurements of blood pressure using a Stathem P23×L transducer (Viggo-Spectramed, USA) and heart rate was obtained from lead II ECG. Guinea pigs were sensitized with IP injections of ovalbumin (0.5 μg/0.5 ml/animal) and Al (OH)3 (1 mg/0.5 ml/animal) on days 1 and 8. The animals were then challenged with 15 μg/kg of Ovalbumin (IV) between days 19 and 23 and bronchopulmonary constriction was recorded as an increase in ITP.
(§1) The test substance at 500 mg/kg was administered orally twice daily for 3 consecutive days and an additional final dose was added on testing day, then, one hour after final dose, the animals were injected intravenously (1 ml/kg) with a “cocktail”: Indomethacin (10 mg/kg), Mepyramine (2 mg/kg), and Propranolol (100 μg/kg), followed by challenge with ovalbumin 5 minutes later. […] Bronchoalveolar lavage fluid was retrieved after instilling 5 ml of phosphate buffered saline for 2 times. TNF-α, IL-1β and IL-8 in bronchoalveolar lavage fluid (BALF) supernatants were measured with ELISA after ovalbumin challenge. One-way ANOVA followed by Dunnett's Test was applied for comparison between the vehicle control and test compound-treated groups. P<0.05 is considered significant.
Anesthetized and artificially ventilated guinea pigs previously sensitized were pretreated with Mepyramine 2 mg/kg, Indomethacin 10 mg/kg and Propranol 0.1 mg/kg for 5 minutes; arterial blood pressure (BP, mm Hg), heart rate (HR, beats/min.) and tracheal pressure (TP, cm H2O) were recorded after oral dosing for 3 days. At the end of chronic dosing, antigen (Ovalbumin 15 μg/kg IV)-induced increase in tracheal pressure (ITP) above an initial baseline of 6 cm H2O was then recorded as an indication of bronchoconstriction. Percent (%) inhibition is calculated according to the formula of [Increase in Tracheal Pressure (vehicle-treated)]−[Increase in Tracheal Pressure (test substance-treated)/[Increase in Tracheal Pressure (vehicle-treated)]×100%. • 1. ΔITP: Changes in ITP over corresponding baseline values; (−) Oval: Response to vehicle or test substance alone and before Ovalbumin challenge; (+) Oval: Changes in response to Ovalbumin challenge. • 2. % Control: ITP response to test substance, vehicle expressed in terms of percentage of the ITP response to Ovalbumin (15 μg/kg IV) in the vehicle-treated control (100%). • 3. […]
The trachea is cannulated and the guinea pig ventilated with a Harvard rodent respirator in a closed system. Tracheal pressure is recorded through a side-arm of the cannula connected to a P23ID Statham transducer. […]

Another assay concerns TNF-α. The assay is described as follows: TNF-α in bronchoalveolar lavage fluid after ovalbumin challenge (ELISA). It counts as in vivo, guinea pig. The following applies: BALF, WG-1-101 500 mg/kg PO, Phenidone 30 mg/kg IV. Here is the method: as §1
(§2) Bronchoalveolar lavage fluid (BALF) samples in the WG-I-101-treated group were prepared for measurements of TNF-α, IL-1β and IL-8 after ovalbumin challenge. One-way ANOVA followed by Dunnett's test was applied for comparison between the vehicle control and test compound-treated groups. P<0.05 is considered significant.
(§3) Bronchoalveolar lavage fluid (BALF) samples in the WG-I-101 treated group were prepared for measurements of TNF-α, IL-1β and IL-8 after Ovalbumin challenge. TNF-α, IL-1β and IL-8 levels of each sample were assessed using TNF-α, IL-1β and IL-8 ELISA kits, respectively. […]
Background: In an ELISA, binding on a coated surface is turned into a signal by an enzyme label.

A further assay deals with IL-1β. The assay can be described thus: IL-1β in bronchoalveolar lavage fluid after ovalbumin challenge (ELISA). It counts as in vivo, guinea pig. Conditions: BALF, WG-1-101 500 mg/kg PO, Phenidone 30 mg/kg IV. Here is the method: as §1, §2, §3
The next assay has as its system IL-8. The assay is described as follows: IL-8 in bronchoalveolar lavage fluid after ovalbumin challenge (ELISA). The format is in vivo, guinea pig. Conditions: BALF, WG-1-101 500 mg/kg PO, Phenidone 30 mg/kg IV. The procedure: as §1, §2, §3

For `CN1[C@@H]2CC[C@H]1C[C@@H](OC(=O)C(CO)c1ccccc1)C2` (stereo partly drawn) [Atropine], in assay [1], the MED mg/kg i.v. is recorded as more than 10 mg/kg.
Take `O=C(O)c1cc(=O)c2c(OCC(O)COc3cccc4oc(C(=O)O)cc(=O)c34)cccc2o1` [Cromolyn Sodium]: the MED mg/kg i.v. in assay [1] is more than 100 mg/kg.
As for `CCCc1c(OCCCCc2nnn[nH]2)ccc(C(C)=O)c1O` [LY-171883, 1[2-hyroxy-3-propyl-4-[4-(1H-tetrazol-5-yl)butoxy]phenyl]ethanone], the MED mg/kg i.v. in assay [1] was 30 mg/kg.
As to `CC(Cc1ccc(O)c(O)c1)C(C)Cc1ccc(O)c(O)c1` (stereo not drawn) [NDGA, nordihydroguaretic acid], in assay [1], the MED mg/kg i.v. is recorded as 10 mg/kg.
`O=C1CCN(c2ccccc2)N1` [Phenidone]: the “% Control” value in assay [2] (ITP response to test substance as % of Ovalbumin response in vehicle control) worked out at 0%. Further, the “ΔITP (cm H2O) (+) Oval, X ± SEM” value in assay [2] (group mean of 5, response to Ovalbumin 15 μg/kg IV, WG-1-101 500 mg/kg PO bidx3 & qdx1, Phenidone 30 mg/kg IV qdx1) is reported as 1.8 ± 0.8 cm H2O. In addition, in assay [2] (group mean, before Ovalbumin challenge, WG-1-101 500 mg/kg PO bidx3 & qdx1, Phenidone 30 mg/kg IV qdx1), the “ΔITP (cm H2O) (−) Oval, X ± SEM” value worked out at 0 cm H2O. In addition, the “ΔITP (cm H2O) (−) Oval” value in assay [2] (individual animals N 1-5, before Ovalbumin challenge, WG-1-101 500 mg/kg PO bidx3 & qdx1, Phenidone 30 mg/kg IV qdx1) is listed as 0 cm H2O. In addition, in assay [2] (individual animals N 1-5, response to Ovalbumin 15 μg/kg IV, WG-1-101 500 mg/kg PO bidx3 & qdx1, Phenidone 30 mg/kg IV qdx1), the “ΔITP (cm H2O) (+) Oval” value is 4.8 cm H2O and 1.8 cm H2O and 1.2 cm H2O and 0.6 cm H2O (2×). Further, the “% Inhibition of Ovalbumin-induced bronchoconstriction” value in assay [2] (relative to vehicle-treated control, WG-1-101 500 mg/kg PO bidx3 & qdx1, Phenidone 30 mg/kg IV qdx1) is reported as “(89) %”. The “TNF-α (pg/ml), X” value in the assay with TNF-α (group mean) was 7.62 pg/mL. Moreover, the “TNF-α” value in the assay on TNF-α (individual animals N 1-5) was 12.03 pg/mL and 7.0 pg/mL and 3.79 pg/mL and 8.96 pg/mL and 6.33 pg/mL. Further, the “IL-1β (pg/ml), X” value in the assay with IL-1β (group mean) was found to be 1.21 pg/mL. The “IL-1β” value in the assay on IL-1β (individual animals N 1-5) is 3.10 pg/mL and 0.24 pg/mL and 0.46 pg/mL and 2.25 pg/mL and 0.00 pg/mL. Also, the “IL-8 Cont(pg/ml), X” value in the assay on IL-8 (group mean, * P<0.05 vs vehicle) is 0.97* pg/ml. For the same compound, the “IL-8 Cont(pg/ml)” value in the assay on IL-8 (individual animals N 1-5) was 3.63 pg/ml and 1.22 pg/ml and 0.00 pg/ml (3×). The MED mg/kg i.v. in assay [1] is 30 mg/kg.
As to `CC(C)(C)NCC(O)c1ccc(O)c(CO)c1` (stereo not drawn) [Salbutamol], the MED mg/kg i.v. in assay [1] was 0.1 mg/kg.
